Results: patent US4232148A, “6-Deoxyneamines” (The Upjohn Company, priority 1979, dated 1980)
≈ marks a conversion by molar mass, not a printed value. Like-named read-outs stand apart in the source and are kept apart here.

Assays:
Type in all cases: cell-based
B. cereus UC 3145 = assay: standard disc plate assay, zone of inhibition; conditions: 12.5 mm paper discs
Excerpt: (§1) The compounds of formulas (V, VII, IX, XI, XIV, XVI, and XIX) are active as antibacterials and can be used in various environments to erradicate or control susceptible microorganisms. Tables I and II set forth the in vitro antibacterial test results for representative compounds of the present invention. The results were obtained with a standard disc plate assay using 12.5 mm paper discs.

B. subtilis UC 564 = assay: standard disc plate assay, zone of inhibition; conditions: 12.5 mm paper discs
Excerpt: as §1

E. coli UC 51 = assay: standard disc plate assay, zone of inhibition; conditions: 12.5 mm paper discs
Excerpt: as §1

K. pneumoniae UC 57 = assay: standard disc plate assay, zone of inhibition; conditions: 12.5 mm paper discs
Excerpt: as §1

P. vulgaris UC 93 [1] = assay: standard disc plate assay, zone of inhibition; conditions: 12.5 mm paper discs
Excerpt: as §1

Ps. aeruginosa UC 95 [2] = assay: standard disc plate assay, zone of inhibition; conditions: 12.5 mm paper discs
Excerpt: as §1

S. aureus UC 80 = assay: standard disc plate assay, zone of inhibition; conditions: 12.5 mm paper discs
Excerpt: as §1

S. gallinarum UC 265 = assay: standard disc plate assay, zone of inhibition; conditions: Salmonella enterica, read-out: Zones of Inhibition
Excerpt: as §1

S. lutea UC 130 = assay: standard disc plate assay, zone of inhibition; conditions: Micrococcus luteus, UC130, read-out: Zones of Inhibition
Excerpt: as §1

S. schottmeulleri UC 126 = assay: standard disc plate assay, zone of inhibition; conditions: 12.5 mm paper discs
Excerpt: as §1

D. pneumoniae UC 41 = assay: standard microplate test in BHI Agar, MIC; conditions: Streptococcus pneumoniae, UC41, 37°, 20 hours, read-out: Minimal Inhibitory Concentration
Method: (§2) The compounds VII, XI, XVβ, XVα and XVI were tested in a standard microplate test in BHI (Brain Heart Infusion) Agar at a concentration of 1 mg./ml. and dilutions thereof at 37° incubation temperature. The end points are read at 20 hours. BHI Agar is supplied by Difco Laboratories, Detroit, Mich., U.S.A. and has the following compositions:
(§3) Calf brains, infusion from: 200 gm.
(§4) Beef heart, infusion from: 250 gm.
(§5) Bacto Proteose-peptone, Difco: 10 gm.
(§6) Bacto-Dextrose, Difco: 1 gm.
(§7) Disodium phosphate: 2.5 gm.

E. coli UC 311 = assay: standard microplate test in BHI Agar, MIC; conditions: Escherichia coli, UC311, 20 h, read-out: Minimal Inhibitory Concentration
Method: as §2, §3, §4, §5, §6, §7

E. coli UC 45 = assay: standard microplate test in BHI Agar, MIC; conditions: Escherichia coli, UC45, 37°, 20 hours, read-out: Minimum Inhibitory Concentration
Method: as §2, §3, §4, §5, §6, §7

P. mirabilis UC 6671 = assay: standard microplate test in BHI Agar, MIC; conditions: Proteus mirabilis, UC6671, 37°, 20 hours
Method: as §2, §3, §4, §5, §6, §7

P. morganii UC 3186 = assay: standard microplate test in BHI Agar, MIC; conditions: Morganella morganii, UC3186, 20 h
Method: as §2, §3, §4, §5, §6, §7

P. rettgeri UC 339 = assay: standard microplate test in BHI Agar, MIC; conditions: Providencia rettgeri, UC339, 20 h
Method: as §2, §3, §4, §5, §6, §7

P. vulgaris UC 93 [3] = assay: standard microplate test in BHI Agar, MIC; conditions: Proteus vulgaris, UC93, 37°, 20 hours
Method: as §2, §3, §4, §5, §6, §7

Ps. aeruginosa UC 95 [4] = assay: standard microplate test in BHI Agar, MIC; conditions: Pseudomonas aeruginosa, UC95, 20 h
Method: as §2, §3, §4, §5, §6, §7

S. aureus UC 76 = assay: standard microplate test in BHI Agar, MIC; conditions: Staphylococcus aureus, UC76, 20 h
Method: as §2, §3, §4, §5, §6, §7

S. faecalis UC 694 = assay: standard microplate test in BHI Agar, MIC; conditions: Enterococcus faecalis, UC694, 20 h
Method: as §2, §3, §4, §5, §6, §7

S. flexneri UC 143 = assay: standard microplate test in BHI Agar, MIC; conditions: Shigella flexneri, UC143, 37°, 20 hours
Method: as §2, §3, §4, §5, §6, §7

S. marcescens UC 131 = assay: standard microplate test in BHI Agar, MIC; conditions: Serratia marcescens, UC131, 37°, 20 hours
Method: as §2, §3, §4, §5, §6, §7

S. pneumoniae I UC 41 = assay: standard microplate test in BHI Agar, MIC; conditions: Streptococcus pneumoniae, UC41, 37°, 20 hours, read-out: Minimum Inhibitory Concentration
Method: as §2, §3, §4, §5, §6, §7

S. pyogenes UC 152 = assay: standard microplate test in BHI Agar, MIC; conditions: Streptococcus pyogenes, UC152, 20 h
Method: as §2, §3, §4, §5, §6, §7

S. schottmuelleri UC 126 = assay: standard microplate test in BHI Agar, MIC; conditions: 37°, 20 hours
Method: as §2, §3, §4, §5, §6, §7

S. typhi UC 215 = assay: standard microplate test in BHI Agar, MIC; conditions: Salmonella enterica, BHI Agar, 37°, 20 hours
Method: as §2, §3, §4, §5, §6, §7

[5] = read-out: Minimal Inhibitory Concentration
[6] = read-out: Minimum Inhibitory Concentration

NC[C@H]1O[C@H](O[C@H]2[C@H](O)[C@@H](O)[C@H](N)C[C@@H]2N)[C@H](N)[C@@H](O)[C@@H]1O [Neamine]
Zones of Inhibition (B. cereus UC 3145; 1 mg/ml): 23 mm
zone of inhibition at 100 µg/mL (B. cereus UC 3145; Bacillus cereus, UC3145, read-out: Zones of Inhibition, 0.1 mg/ml): 15 mm
zone of inhibition at 1000 µg/mL (B. cereus UC 3145; Bacillus cereus, UC3145, read-out: Zones of Inhibition, 1 mg/ml): 24 mm
Zones of Inhibition (B. subtilis UC 564; 0.1 mg/ml): 28 mm
Zones of Inhibition (B. subtilis UC 564; 1 mg/ml): 37 mm
zone of inhibition at 100 µg/mL (B. subtilis UC 564; Bacillus subtilis, UC564, read-out: Zones of Inhibition, 0.1 mg/ml): 30 mm
zone of inhibition at 1000 µg/mL (B. subtilis UC 564; Bacillus subtilis, UC564, read-out: Zones of Inhibition, 1 mg/ml): 39 mm
Zones of Inhibition (E. coli UC 51; 0.1 mg/ml): 18 mm
Zones of Inhibition (E. coli UC 51; 1 mg/ml): 25 mm
zone of inhibition at 100 µg/mL (E. coli UC 51; Escherichia coli, UC51, read-out: Zones of Inhibition, 0.1 mg/ml): 19 mm
zone of inhibition at 1000 µg/mL (E. coli UC 51; Escherichia coli, UC51, read-out: Zones of Inhibition, 1 mg/ml): 27 mm
Zones of Inhibition (K. pneumoniae UC 57; 0.1 mg/ml): 26 mm
Zones of Inhibition (K. pneumoniae UC 57; 1 mg/ml): 32 mm
zone of inhibition at 100 µg/mL (K. pneumoniae UC 57; Klebsiella pneumoniae, UC57, read-out: Zones of Inhibition, 0.1 mg/ml): 27 mm
zone of inhibition at 1000 µg/mL (K. pneumoniae UC 57; Klebsiella pneumoniae, UC57, read-out: Zones of Inhibition, 1 mg/ml): 34 mm
Zones of Inhibition (P. vulgaris UC 93 [1]; 0.1 mg/ml): 15 mm
Zones of Inhibition (P. vulgaris UC 93 [1]; 1 mg/ml): 28 mm
zone of inhibition at 100 µg/mL (P. vulgaris UC 93 [1]; Proteus vulgaris, UC93, read-out: Zones of Inhibition, 0.1 mg/ml): 18 mm
zone of inhibition at 1000 µg/mL (P. vulgaris UC 93 [1]; Proteus vulgaris, UC93, read-out: Zones of Inhibition, 1 mg/ml): 27 mm
Zones of Inhibition (Ps. aeruginosa UC 95 [2]; 1 mg/ml): 18 mm
zone of inhibition at 1000 µg/mL (Ps. aeruginosa UC 95 [2]; Pseudomonas aeruginosa, UC95, read-out: Zones of Inhibition, 1 mg/ml): 17 mm
Zones of Inhibition (S. aureus UC 80; 0.1 mg/ml): 18 mm
Zones of Inhibition (S. aureus UC 80; 1 mg/ml): 26 mm
zone of inhibition at 100 µg/mL (S. aureus UC 80; Staphylococcus aureus, UC80, read-out: Zones of Inhibition, 0.1 mg/ml): 20 mm
zone of inhibition at 1000 µg/mL (S. aureus UC 80; Staphylococcus aureus, UC80, read-out: Zones of Inhibition, 1 mg/ml): 29 mm
zone of inhibition at 100 µg/mL (S. gallinarum UC 265): 19 mm
zone of inhibition at 1000 µg/mL (S. gallinarum UC 265): 29 mm
zone of inhibition at 1000 µg/mL (S. lutea UC 130): 17 mm
Zones of Inhibition (S. schottmeulleri UC 126; 0.1 mg/ml): 15 mm
zone of inhibition at 100 µg/mL (S. schottmeulleri UC 126; 0.1 mg/ml, read-out: Zones of Inhibition): 16 mm
Zones of Inhibition (S. schottmeulleri UC 126; 1 mg/ml): 23 mm
zone of inhibition at 1000 µg/mL (S. schottmeulleri UC 126; 1 mg/ml, read-out: Zones of Inhibition): 24 mm
MIC (D. pneumoniae UC 41): 62.5 µg/mL (≈ 194 µM)
MIC (E. coli UC 311): 125 µg/mL (≈ 388 µM)
MIC (E. coli UC 45): 62.5 µg/mL (≈ 194 µM)
MIC (P. mirabilis UC 6671; [5]): 250 µg/mL (≈ 776 µM)
MIC (P. mirabilis UC 6671; [6]): 62.5 µg/mL (≈ 194 µM)
MIC (P. morganii UC 3186; [5]): 31.2 µg/mL (≈ 96.8 µM)
MIC (P. morganii UC 3186; [6]): 62.5 µg/mL (≈ 194 µM)
MIC (P. rettgeri UC 339; [5]): > 500 µg/mL
MIC (P. rettgeri UC 339; [6]): 250 µg/mL (≈ 776 µM)
MIC (P. vulgaris UC 93 [3]; [5]): 62.5 µg/mL (≈ 194 µM)
MIC (P. vulgaris UC 93 [3]; [6]): 62.5 µg/mL (≈ 194 µM)
MIC (Ps. aeruginosa UC 95 [4]; [5]): > 500 µg/mL
MIC (Ps. aeruginosa UC 95 [4]; [6]): > 500 µg/mL
MIC (S. aureus UC 76; [5]): 7.8 µg/mL (≈ 24.2 µM)
MIC (S. aureus UC 76; [6]): 3.9 µg/mL (≈ 12.1 µM)
MIC (S. faecalis UC 694; [5]): > 500 µg/mL
MIC (S. faecalis UC 694; [6]): > 500 µg/mL
MIC (S. flexneri UC 143; [5]): 125 µg/mL (≈ 388 µM)
MIC (S. flexneri UC 143; [6]): 62.5 µg/mL (≈ 194 µM)
MIC (S. marcescens UC 131; [5]): 250 µg/mL (≈ 776 µM)
MIC (S. marcescens UC 131; [6]): 250 µg/mL (≈ 776 µM)
MIC (S. pneumoniae I UC 41): 62.5 µg/mL (≈ 194 µM)
MIC (S. pyogenes UC 152; [5]): 7.8 µg/mL (≈ 24.2 µM)
MIC (S. pyogenes UC 152; [6]): 7.8 µg/mL (≈ 24.2 µM)
MIC (S. schottmuelleri UC 126; [5]): 15.6 µg/mL (≈ 48.4 µM)
MIC (S. schottmuelleri UC 126; [6]): 31.2 µg/mL (≈ 96.8 µM)
MIC (S. typhi UC 215; [5]): 31.2 µg/mL (≈ 96.8 µM)
MIC (S. typhi UC 215; [6]): 15.6 µg/mL (≈ 48.4 µM)
